Laboratory results reported in ChEMBL document CHEMBL1137771, “Non-nucleoside inhibitors of HCV polymerase NS5B. Part 2: Synthesis and structure-activity relationships of benzothiazine-substituted quinolinediones” (Bioorg Med Chem Lett, 2009).
≈ marks a conversion by molar mass, not a printed value.

Legend:
[1] = AUC in rat at 2 mg/kg, iv; type: ADME, organism-based; design: dose 2 mg/kg, route intravenous; settings: plasma
[2] = Cmax in male rat at 500 mg/kg, po after 7 days; type: ADME, organism-based; design: dose 500 mg/kg, route oral; settings: in vivo
[3] = Clearance in dog at 1 mg/kg, iv; type: ADME, organism-based, Canis lupus familiaris; design: dose 1 mg/kg, route intravenous; settings: in vivo
[4] = Cmax in male rat at 10 mg/kg, po after 1 day; type: ADME, organism-based; design: dose 10 mg/kg, route oral; settings: in vivo
[5] = Cmax in female dog at 2 mg/kg, po dosed as nanosized particles; type: ADME, organism-based, Canis lupus familiaris; design: dose 2 mg/kg, route oral; settings: in vivo
[6] = Half life in dog at 1 mg/kg, po; type: ADME, organism-based, Canis lupus familiaris; design: dose 1 mg/kg, route oral; settings: in vivo
[7] = Cmin (24 hrs) in female rat at 500 mg/kg, po after 1 day; type: ADME, organism-based; design: dose 500 mg/kg, route oral; settings: in vivo, read-out: Cmin
[8] = Cmin (24 hrs) in male rat at 100 mg/kg, po after 1 day; type: ADME, organism-based; design: dose 100 mg/kg, route oral; settings: in vivo, read-out: Cmin
[9] = Cmax in female rat at 500 mg/kg, po after 1 day; type: ADME, organism-based; design: dose 500 mg/kg, route oral; settings: in vivo
[10] = Cmin (24 hrs) in female rat at 100 mg/kg, po after 1 day; type: ADME, organism-based; design: dose 100 mg/kg, route oral; settings: in vivo, read-out: Cmin
[11] = AUC (0 to 24 hrs) in female rat at 10 mg/kg, po after 1 day; type: ADME, organism-based; design: time < 24 hr, dose 10 mg/kg, route oral; settings: plasma
[12] = Drug concentration in rat liver at 5 mg/kg, po after 2 hrs; type: ADME, organism-based; design: dose 5 mg/kg, route oral; settings: read-out: Drug uptake
[13] = AUC (0 to 24 hrs) in male rat at 10 mg/kg, po after 1 day; type: ADME, organism-based; design: time < 24 hr, dose 10 mg/kg, route oral; settings: plasma
[14] = Cmax in male rat at 10 mg/kg, po after 7 days; type: ADME, organism-based; design: dose 10 mg/kg, route oral; settings: in vivo
[15] = Cmin (24 hrs) in male rat at 500 mg/kg, po after 1 day; type: ADME, organism-based; design: dose 500 mg/kg, route oral; settings: in vivo, read-out: Cmin
[16] = Cmax in dog at 1 mg/kg, iv; type: ADME, organism-based, Canis lupus familiaris; design: dose 1 mg/kg, route intravenous; settings: in vivo
[17] = Cmax in male rat at 100 mg/kg, po after 7 days; type: ADME, organism-based; design: dose 100 mg/kg, route oral; settings: in vivo
Hepatitis C virus [18] = experiment: Antiviral activity against HCV genotype 1b isolate con1 infected in human 2209-23 cells assessed as inhibition of [3H]thymidine incorporation into DNA by scintillation proximity assay in presence of 40% human serum albumin; type: functional, organism-based, Hepacivirus hominis; settings: isolate Con1, 2209-23
Hepatocyte = experiment: Metabolic stability in rat hepatocytes assessed per 10^6 cells; type: ADME, cell-based
[19] = Cmax in rat at 2 mg/kg, iv; type: ADME, organism-based; design: dose 2 mg/kg, route intravenous; settings: in vivo
[20] = Cmax in male rat at 100 mg/kg, po after 1 day; type: ADME, organism-based; design: dose 100 mg/kg, route oral; settings: in vivo
[21] = Cmax in female rat at 500 mg/kg, po after 7 days; type: ADME, organism-based; design: dose 500 mg/kg, route oral; settings: in vivo
[22] = Drug concentration in rat liver at 5 mg/kg, po after 6 hrs; type: ADME, organism-based; design: dose 5 mg/kg, route oral; settings: read-out: Drug uptake
[23] = Ratio of drug level from liver to plasma in po dosed rat after 24 hrs; type: ADME, organism-based
[24] = Half life in dog at 1 mg/kg, iv; type: ADME, organism-based, Canis lupus familiaris; design: dose 1 mg/kg, route intravenous; settings: in vivo
Caco-2 = experiment: Efflux ratio of permeability from […] side in human Caco-2 cells after 21 days; type: ADME, cell-based; settings: caco-2, 504 h
[25] = AUC (0 to 24 hrs) in female rat at 500 mg/kg, po after 1 day; type: ADME, organism-based; design: time < 24 hr, dose 500 mg/kg, route oral; settings: plasma
[26] = Cmax in dog at 1 mg/kg, po; type: ADME, organism-based, Canis lupus familiaris; design: dose 1 mg/kg, route oral; settings: in vivo
[27] = AUC in male rat at 10 mg/kg, po after 7 days; type: ADME, organism-based; design: dose 10 mg/kg, route oral; settings: plasma
[28] = AUC in male rat at 100 mg/kg, po after 7 days; type: ADME, organism-based; design: dose 100 mg/kg, route oral; settings: plasma
[29] = Cmax in female dog at 2 mg/kg, po dosed as normal particles; type: ADME, organism-based, Canis lupus familiaris; design: dose 2 mg/kg, route oral; settings: in vivo
[30] = Toxicity in rat assessed as adverse effects after 7 days; type: organism-based; settings: in vivo
Hepatitis C virus [31] = experiment: Inhibition of HCV genotype 1b isolate con1 NS5B polymerase assessed as incorporation of radiolabeled nucleotide into RNA product; design: species or system Hepacivirus hominis
[32] = Cmax in female dog at 2 mg/kg administered intraduodenally as cannula dose; type: ADME, organism-based, Canis lupus familiaris; design: dose 2 mg/kg, route intraduodenal; settings: in vivo
[33] = Cmax in female rat at 10 mg/kg, po after 7 days; type: ADME, organism-based; design: dose 10 mg/kg, route oral; settings: in vivo
[34] = Cmax in female rat at 10 mg/kg, po after 1 day; type: ADME, organism-based; design: dose 10 mg/kg, route oral; settings: in vivo
[35] = Cmax in male rat at 500 mg/kg, po after 1 day; type: ADME, organism-based; design: dose 500 mg/kg, route oral; settings: in vivo
[36] = AUC in female rat at 10 mg/kg, po after 7 days; type: ADME, organism-based; design: dose 10 mg/kg, route oral; settings: plasma
Hepatitis C virus [37] = experiment: Antiviral activity against HCV genotype 1b isolate con1 infected in human 2209-23 cells assessed as inhibition of [3H]thymidine incorporation into DNA by scintillation proximity assay in presence of 5% fetal bovine serum; type: functional, organism-based, Hepacivirus hominis; settings: isolate Con1, 2209-23
[38] = AUC (0 to 24 hrs) in female rat at 100 mg/kg, po after 1 day; type: ADME, organism-based; design: time < 24 hr, dose 100 mg/kg, route oral; settings: plasma
[39] = Cytotoxicity against human 2209-23 cells by WST1 assay; type: cell-based
[40] = Cmax in female rat at 100 mg/kg, po after 1 day; type: ADME, organism-based; design: dose 100 mg/kg, route oral; settings: in vivo
[41] = Solubility of the compound; type: physicochemical
serum albumin = serum albumin (Homo sapiens, UniProt P02768); experiment: Binding affinity to human serum albumin; type: ADME; settings: read-out: PB (converted)
serum albumin, sequence (P02768 whole entry): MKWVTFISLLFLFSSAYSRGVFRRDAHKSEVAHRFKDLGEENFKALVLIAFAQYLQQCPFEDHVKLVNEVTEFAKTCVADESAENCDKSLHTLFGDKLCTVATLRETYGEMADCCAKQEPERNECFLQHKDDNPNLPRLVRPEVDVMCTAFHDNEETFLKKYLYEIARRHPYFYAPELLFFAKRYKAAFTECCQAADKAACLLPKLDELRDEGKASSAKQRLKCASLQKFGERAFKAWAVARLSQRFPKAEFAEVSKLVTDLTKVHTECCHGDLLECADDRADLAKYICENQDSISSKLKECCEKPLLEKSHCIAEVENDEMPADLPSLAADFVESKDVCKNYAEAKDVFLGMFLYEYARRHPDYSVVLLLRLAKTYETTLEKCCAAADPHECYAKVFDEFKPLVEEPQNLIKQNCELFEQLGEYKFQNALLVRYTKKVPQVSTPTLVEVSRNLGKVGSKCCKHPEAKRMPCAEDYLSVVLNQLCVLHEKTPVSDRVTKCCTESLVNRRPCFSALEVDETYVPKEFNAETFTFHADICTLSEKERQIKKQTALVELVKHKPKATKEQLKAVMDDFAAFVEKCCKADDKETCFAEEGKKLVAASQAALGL

Hepatitis C virus [42] = experiment: Ratio of EC50 for HCV genotype 1b isolate con1 in presence of human serum albumin to EC50 for HCV genotype 1b isolate con1 in presence of fetal bovine serum; type: functional, Hepacivirus hominis
[43] = Clearance in rat at 2 mg/kg, iv; type: ADME, organism-based; design: dose 2 mg/kg, route intravenous; settings: in vivo
[44] = Cmax in rat at 5 mg/kg, po; type: ADME, organism-based; design: dose 5 mg/kg, route oral; settings: in vivo
[45] = AUC in female rat at 500 mg/kg, po after 7 days; type: ADME, organism-based; design: dose 500 mg/kg, route oral; settings: plasma
[46] = Half life in rat at 2 mg/kg, iv; type: ADME, organism-based; design: dose 2 mg/kg, route intravenous; settings: in vivo
[47] = Metabolic stability in dog liver microsomes; type: ADME, Canis lupus familiaris, Microsome; settings: read-out: Stability
[48] = AUC in dog at 1 mg/kg, po; type: ADME, organism-based, Canis lupus familiaris; design: dose 1 mg/kg, route oral; settings: plasma
[49] = AUC (0 to 24 hrs) in male rat at 500 mg/kg, po after 1 day; type: ADME, organism-based; design: time < 24 hr, dose 500 mg/kg, route oral; settings: plasma
[50] = AUC (0 to 24 hrs) in male rat at 100 mg/kg, po after 1 day; type: ADME, organism-based; design: time < 24 hr, dose 100 mg/kg, route oral; settings: plasma
[51] = AUC in male rat at 500 mg/kg, po after 7 days; type: ADME, organism-based; design: dose 500 mg/kg, route oral; settings: plasma
[52] = Metabolic stability in rat liver microsomes; type: ADME, Microsome; settings: read-out: Stability
[53] = AUC in dog at 1 mg/kg, iv; type: ADME, organism-based, Canis lupus familiaris; design: dose 1 mg/kg, route intravenous; settings: plasma
[54] = Cmax in female rat at 100 mg/kg, po after 7 days; type: ADME, organism-based; design: dose 100 mg/kg, route oral; settings: in vivo
[55] = AUC in female rat at 100 mg/kg, po after 7 days; type: ADME, organism-based; design: dose 100 mg/kg, route oral; settings: plasma

## Cc1cc(Cn2c(=O)c(C3=CS(=O)(=O)c4cc(NS(C)(=O)=O)ccc4N3)c(O)c3cc(F)ccc32)ccc1F
[1]
  AUC: 158 ng·h/mL
[2]
  Cmax: 152 ng/mL
[3]
  clearance: 19 mL/min/kg
[4]
  Cmax: 2.06 ng/mL
[5]
  Cmax: < 15 ng/mL
[6]
  half-life: 1.2 h
[7]
  concentration at 24 h: 1.3 ng/mL
[8]
  concentration at 24 h: 2.8 ng/mL
[9]
  Cmax: 48.2 ng/mL
[10]
  concentration at 24 h: 2.1 ng/mL
[11]
  AUC(0-t) at 24 h: 25.6 ng·h/mL
[12]
  concentration at 2 h: 151 ng/g
[13]
  AUC(0-t) at 24 h: 25.4 ng·h/mL
[14]
  Cmax: 2.76 ng/mL
[15]
  concentration at 24 h: 11.3 ng/mL
[16]
  Cmax: 4350 ng/mL
[17]
  Cmax: 21.1 ng/mL
Hepatitis C virus [18]
  EC50: 88 nM
Hepatocyte
  Stability: 1.6 µL/min
[19]
  Cmax: 130 ng/mL
[20]
  Cmax: 20.4 ng/mL
[21]
  Cmax: 89.3 ng/mL
[22]
  concentration at 6 h: 22 ng/g
[23]
  Kp at 24 h: 10
[24]
  half-life: 1.6 h
Caco-2
  Ratio: 3.78
[25]
  AUC(0-t) at 24 h: 701 ng·h/mL
[26]
  Cmax: 10.6 ng/mL
[27]
  AUC at 168 h: 34.4 ng·h/mL
[28]
  AUC at 168 h: 322 ng·h/mL
[29]
  Cmax: < 15 ng/mL
[30]
  NOAEL at 168 h: > 500 mg/kg/day
Hepatitis C virus [31]
  IC50: 13 nM
[32]
  Cmax: < 15 ng/mL
[33]
  Cmax: 2.8 ng/mL
[34]
  Cmax: 3.26 ng/mL
[35]
  Cmax: 93.2 ng/mL
[36]
  AUC at 168 h: 21.2 ng·h/mL
Hepatitis C virus [37]
  EC50: 23 nM
[38]
  AUC(0-t) at 24 h: 116 ng·h/mL
[39]
  CC50: > 50000 nM
[40]
  Cmax: 13 ng/mL
[41]
  solubility: 6.7 µg/mL (≈ 11.7 µM)
Serum albumin
  fraction unbound: 0.002
Hepatitis C virus [42]
  fold change (FC): 9.2
[43]
  clearance: 186 mL/min/kg
[44]
  Cmax: 2 ng/mL
[45]
  AUC at 168 h: 1470 ng·h/mL
[46]
  half-life: 1.1 h
[47]
  microsomal CLint: 24 µL/min/mg
[48]
  AUC: 34.8 ng·h/mL
[49]
  AUC(0-t) at 24 h: 821 ng·h/mL
[50]
  AUC(0-t) at 24 h: 223 ng·h/mL
[51]
  AUC at 168 h: 1910 ng·h/mL
[52]
  microsomal CLint: 126 µL/min/mg
[53]
  AUC: 954 ng·h/mL
[54]
  Cmax: 15.8 ng/mL
[55]
  AUC at 168 h: 299 ng·h/mL
